Source: patent US10770169B2, “Method of providing a treatment to a subject based on a dynamic pathway map” (THE REGENTS OF THE UNIVERSITY OF CALIFORNIA, priority 2010, dated 2020)
Read-outs that look alike come from different tables or passages of the source.

Tested on: panel of 55 breast cancer cell lines
Assay: Cell growth inhibition assay (Cell Titer Glo, 72 h, 9 doses; GI50, TGI, LC50)
Format: cell-based, human
Conditions: Homo sapiens, read-out: GI50 (converted)

In the case of `Cc1ccc(C(=O)N(CCCN)[C@@H](c2nc3cc(Cl)ccc3c(=O)n2Cc2ccccc2)C(C)C)cc1` [Ispinesib], the GI50 (AU565, cell line AU565, censored GI50 values) is reported as 22.4 nM, the GI50 (AU565, cell line AU565) is reported as 22.4 nM and the GI50 (BT-20, cell line BT20, censored GI50 values) is reported as 17 nM. The GI50 (BT-20, cell line BT20) was 17 nM, the GI50 (BT-474, cell line BT474, censored GI50 values) was 51.3 nM and the GI50 (BT-474, cell line BT474) was 51.3 nM. The GI50 (BT-483, cell line BT483, censored GI50 values) was 0.049 nM, the GI50 (BT-483, cell line BT483) was 0.049 nM and the GI50 (BT-549, cell line BT549, censored GI50 values) was 46.8 nM. For the same compound, the GI50 (BT-549, cell line BT549) was 46.8 nM, the GI50 (CAMA-1, cell line CAMA1, censored GI50 values) was 31.6 nM and the GI50 (CAMA-1, cell line CAMA1) was 31.6 nM. It also gave a GI50 (HCC38, cell line HCC38, censored GI50 values) of 46.8 nM, a GI50 (HCC38, cell line HCC38) of 46.8 nM and a GI50 (HCC70, cell line HCC70, censored GI50 values) of 45.7 nM. For the same compound, the GI50 (HCC70, cell line HCC70) was 45.7 nM, the GI50 (HCC202, cell line HCC202, censored GI50 values) was 7.59 nM and the GI50 (HCC202, cell line HCC202) was 7.59 nM. It also gave a GI50 (HCC1143, cell line HCC1143, censored GI50 values) of 51.3 nM, a GI50 (HCC1143, cell line HCC1143) of 51.3 nM and a GI50 (HCC1187, cell line HCC1187, censored GI50 values) of 26.9 nM. For the same compound, the GI50 (HCC1187, cell line HCC1187) was 26.9 nM, the GI50 (HCC1395, cell line HCC1395, censored GI50 values) was 27.5 nM and the GI50 (HCC1395, cell line HCC1395) was 27.5 nM. For the same compound, the GI50 (HCC1419, cell line HCC1419, censored GI50 values) was 6760 nM, the GI50 (HCC1419, cell line HCC1419) was 6760 nM and the GI50 (HCC1428, cell line HCC1428, censored GI50 values) was 4470 nM. For the same compound, the GI50 (HCC1428, cell line HCC1428) was 4470 nM, the GI50 (HCC1500, cell line HCC1500, censored GI50 values) was 33.9 nM and the GI50 (HCC1500, cell line HCC1500) was 33.9 nM. It also gave a GI50 (HCC1806, cell line HCC1806, censored GI50 values) of 28.8 nM, a GI50 (HCC1806, cell line HCC1806) of 28.8 nM and a GI50 (HCC1937, cell line HCC1937, censored GI50 values) of 282 nM. The GI50 (HCC1937, cell line HCC1937) was 282 nM, the GI50 (HCC1954, cell line HCC1954, censored GI50 values) was 30.9 nM and the GI50 (HCC1954, cell line HCC1954) was 30.9 nM. The GI50 (MCF7, cell line MCF7, censored GI50 values) was 38 nM, the GI50 (MCF7, cell line MCF7) was 38 nM and the GI50 (MDA-MB-134-VI, cell line MDAMB134VI, censored GI50 values) was 43.7 nM. For the same compound, the GI50 (MDA-MB-157, cell line MDAMB157, censored GI50 values) was 31.6 nM, the GI50 (MDA-MB-175-VII, cell line MDAMB175VII, censored GI50 values) was 1700 nM and the GI50 (MDA-MB-231, cell line MDAMB231, censored GI50 values) was 31.6 nM. It also gave a GI50 (MDA-MB-361, cell line MDAMB361, censored GI50 values) of 33.9 nM, a GI50 (MDA-MB-415, cell line MDAMB415, censored GI50 values) of 75.9 nM and a GI50 (MDA-MB-436, cell line MDAMB436, censored GI50 values) of 38.9 nM. For the same compound, the GI50 (MDA-MB-453, cell line MDAMB453, censored GI50 values) was 42.7 nM, the GI50 (MDA-MB-468, cell line MDAMB468, censored GI50 values) was 19.1 nM and the GI50 (SK-BR-3, cell line SKBR3, censored GI50 values) was 33.9 nM. For the same compound, the GI50 (SUM52PE, cell line SUM52PE, censored GI50 values) was 28.8 nM, the GI50 (SUM149PT, cell line SUM149PT, censored GI50 values) was 33.1 nM and the GI50 (SUM185PE, cell line SUM185PE, censored GI50 values) was 110 nM. The GI50 (SUM225CWN, cell line SUM225CWN, censored GI50 values) was 105 nM, the GI50 (SUM1315MO2, cell line SUM1315MO2, censored GI50 values) was 40.7 nM and the GI50 (SUM-159-PT, cell line SUM159PT, censored GI50 values) was 47.9 nM. The GI50 (T47D, cell line T47D, censored GI50 values) was 83.2 nM, the GI50 (UACC-893, cell line UACC893, censored GI50 values) was 10.5 nM and the GI50 (ZR-75-1, cell line ZR751, censored GI50 values) was 89.1 nM. For the same compound, the GI50 (ZR-75B, cell line ZR75B, censored GI50 values) was 132 nM, the GI50 (cell line 600MPE, censored GI50 values) was 20.9 nM and the GI50 (cell line 600MPE) was 20.9 nM. For the same compound, the GI50 (cell line HCC2185, censored GI50 values) was 29.5 nM, the GI50 (cell line HCC2185) was 29.5 nM and the GI50 (cell line HCC3153, censored GI50 values) was 28.2 nM. For the same compound, the GI50 (cell line HCC3153) was 28.2 nM, the GI50 (cell line LY2, censored GI50 values) was 22.9 nM and the GI50 (cell line LY2) was 22.9 nM.
